# Results published in US9533972B2, “Substituted sodium-1H-pyrazole-5-olate” (Bayer Intellectual Property GmbH, priority 2010, dated 2017).
# How the values were obtained:
# Solubility in water = assay type: physicochemical; conditions: comparison in words
# Protocol: Method: Saturated solutions of the test substance were prepared by stirring a suspension in water at 25° C. for 16 hours. The suspensions obtained were then filtered, and the content in the filtrate was determined by HPLC.
# [1] = Water uptake / hygroscopicity at customary environmental conditions; assay type: physicochemical
# Protocol: The compound of the formula (I) is hygroscopic and, at customary environmental conditions (20-35° C., atmospheric pressure), takes up up to about 6% by weight of water even at a relative atmospheric humidity above 20% rh. At an atmospheric humidity of 30% rh, the uptake of 6% by weight of water is almost complete. If the atmospheric humidity decreases below 30% rh, the compound of the formula (I) releases part of the water it comprises. This uptake of water or release of water renders handling of the compound of the formula (I), for example weighing operations, and the production of the compound of the formula (I) in a uniform, stable and definined form for use in medicaments or the production of medicaments comprising compound of the formula (I) more difficult. In particular, this increases the technical expenditure during the production of administration forms comprising the compound of the formula (I), such as, for example, tablets, granules or drink solutions, since measures for controlling and regulating atmospheric humidity are required to maintain a uniform concentration of the compound of the formula (I). […]
# [2] = tested on: recombinant A549 cell line with luciferase reporter under hypoxia-responsible elements; experiment: Cellular, functional in vitro test (luciferase reporter under hypoxia-responsible elements); assay type: cell-based; conditions: Homo sapiens; A549-derived luciferase reporter cell line
# From the text: The activity of the compounds according to the invention is quantified with the aid of a recombinant cell line. The cell is originally derived from a human lung carcinoma cell line (A549, ATCC: American Type Culture Collection, Manassas, Va. 20108, USA). The test cell line is transfected in a stable manner with a vector which contains the reporter gene of Photinus pyralis luciferase (called luciferase in the following) under the control of an artificial minimal promoter. The minimal promoter comprises two hypoxia-responsible elements upstream of a TATA box [Oehme F., Ellinghaus P., Kolkhof P., Smith T. J., Ramakrishnan S., Hatter J., Schramm M., Flamme I., Biochem. Biophys. Res. Commun. 296 (2), 343-9 (2002)]. Under the effect of hypoxia (e.g. culturing in the presence of 1% oxygen for 24 hours) or under the action of non-selective dioxygenase inhibitors (e.g. desferroxamine in a concentration of 100 μM, cobalt chloride in a concentration of 100 μM or N-oxalylglycine diethyl ester in a concentration of 1 mM), the test cell line produces luciferase, which can be detected and quantified with the aid of suitable bioluminescence reagents (e.g. Steady-Glo® Luciferase Assay System, Promega Corporation, Madison, Wis. 53711, USA) and a suitable luminometer. […]
# [3] = Vapour adsorption and vapour desorption (moisture sorption isotherm); assay type: physicochemical; conditions: 25° C.
# Protocol: The moisture sorption isotherm was recorded using a Dynamic Vapour Sorption Analyzer IGA Sorp from Hiden Analytical. The measuring temperature was 25° C. There was no sample preparation.
SMILES,solubility in water compared to the compound of the formula (I) (Solubility in water),water comprised [1],EC50 [2],Adsorption ([3]; 0% rh),Desorption ([3]; 0% rh),Adsorption ([3]; 10% rh),Desorption ([3]; 10% rh),Desorption ([3]; 20% rh),Desorption ([3]; 5% rh)
"[Na+].[O-]c1c(-n2ccnn2)cnn1-c1cc(N2CCOCC2)ncn1 [Compound of the formula (II), sodium 1-[6-(morpholin-4-yl)pyrimidin-4-yl]-4-(1H-1,2,3-triazol-1-yl)-1H-pyrazol-5-olate]",higher solubility in water,less than 0.5 % by weight,7 µM,0%,0%,0%,0%,0%,–
"Oc1c(-n2ccnn2)cnn1-c1cc(N2CCOCC2)ncn1 [Compound of the formula (I), 1-[6-(morpholin-4-yl)pyrimidin-4-yl]-4-(1H-1,2,3-triazol-1-yl)-1H-pyrazol-5-ol, reference compound]",–,–,–,–,–,–,–,–,0.1% (5% rh)
